We go through one compound from publication PMC10992857, “Chemoenzymatic access to enantiopure N-containing furfuryl alcohol from chitin-derived N-acetyl-D-glucosamine” (Bioresources and Bioprocessing, 2021).

Each structure is given as a SMILES string.

The subject of experiment [1] is T1, ScCR; carbonyl reductase from Streptomyces coelicolor.
T1 construct: pET28a, His-tag purified from E. coli BL21(DE3); NADH-dependent
Briefly: kinetics of asymmetric ketone reduction. Particulars: co-substrate NADH; full assay conditions in supplement Table S3. In kind it is biochemical.

Experiment [2] has as its system T2, YueD; carbonyl reductase from Bacillus sp. ECU0013.
T2 construct: pET28a, His-tag purified from E. coli BL21(DE3); NADPH-dependent
The experiment can be described thus: kinetics of asymmetric ketone reduction. Particulars: co-substrate NADPH; full assay conditions in supplement Table S3. In kind it is biochemical. An excerpt: kinetics of asymmetric ketone reduction on YueD; carbonyl reductase from Bacillus sp.

`CC(=O)Nc1coc(C(C)=O)c1` [3A5AF, 3-Acetamido-5-acetylfuran]: the results for the Km in experiment [1] and in experiment [2] were 6.3 mM and 0.5 mM, respectively.

For orientation: Km means the concentration of substrate that gives half-maximal velocity.
